Measurements from patent US11213543B2, “Human gastrointestinal microbiome modulating composition and methods of use” (priority 2011, dated 2022).
“Also recorded” adds a separate entry of the source.

Experiments:
[1] = design: key: ↑indicates an increase is reported; ↓ indicates that a decrease is reported; details: reported in the references of Table 6, cited from earlier work
[2] = metformin without FORMULA A
Description: They were started on metformin 500 mg twice a day and was instructed to measure their fasting blood sugar on a daily basis. Over the course of 7 days they were instructed to increase metformin to 1000 mg twice a day.

[3] = cited from earlier work

| Molecule | Function: TG ([1]; TG is triglyceride) | Function: GLP-1 [1] | Function: PYY [1] | Function: ghrelin [1] | Function: satiety [1] | stools / diarrhea on metformin [2] | weight loss ([3]; approximate) [kg] | incidence of diarrhea in diabetic patients taking the drug ([3]; compared to only 6% of diabetic patients not taking metformin) [%] | Function: LDL chol [1] | Function: hunger [1] |
| --- | --- | --- | --- | --- | --- | --- | --- | --- | --- | --- |
| Inulin | ↓ | ↑ | ↑ | ↓ | ↑ |  |  |  |  |  |
| CN(C)C(=N)N=C(N)N [metformin] |  |  |  |  |  | persistent watery stools; also recorded: Diarrhea | 2 to 3 | 20 |  |  |
| β-Glucan |  | ↑ | ↑ | ↓ | ↑ |  |  |  | ↓ | ↓ |
